In ChEMBL document CHEMBL5233221, “Celastrol: Progresses in structure-modifications, structure-activity relationships, pharmacology and toxicology” (Eur J Med Chem, 2020):
In brackets after ≈: the same amount, converted by molar mass.

Legend:
Bel-7402 = assay: Antiproliferative activity against human Bel-7402 cells assessed as cell growth inhibition; format: functional, cell-based
U-937 = assay: Antiproliferative activity against human U-937 cells assessed as cell growth inhibition; format: functional, cell-based
AGS = assay: Antiproliferative activity against human AGS cells assessed as cell growth inhibition; format: functional, cell-based
K562 = assay: Antiproliferative activity against human K562 cells assessed as cell growth inhibition; format: functional, cell-based
KBM5 [1] = assay: Antiproliferative activity against human KBM5 cells assessed as cell growth inhibition; format: functional, cell-based
KBM5 [2] = assay: Antiproliferative activity against human KBM5 cells expressing Bcr-Abl harboring T315I mutant assessed as cell growth inhibition; format: functional, cell-based
Kasumi 1 = assay: Antiproliferative activity against human Kasumi 1 cells assessed as cell growth inhibition; format: functional, cell-based
[3] = Antiproliferative activity against human SKNO-1 cells assessed as cell growth inhibition; format: functional, cell-based
U-266 = assay: Antiproliferative activity against human U-266 cells assessed as cell growth inhibition; format: functional, cell-based
MM1.S = assay: Antiproliferative activity against human MM1.S cells assessed as cell growth inhibition; format: functional, cell-based
[4] = Antiproliferative activity against human MM1.R cells assessed as cell growth inhibition; format: functional, cell-based; details: MM.1R
LP-1 = assay: Antiproliferative activity against human LP-1 cells assessed as cell growth inhibition; format: functional, cell-based
NCI-H929 = assay: Antiproliferative activity against human NCI-H929 cells assessed as cell growth inhibition; format: functional, cell-based
RPMI-8226 [5] = assay: Antiproliferative activity against human RPMI-8226 cells assessed as cell growth inhibition; format: functional, cell-based
RPMI-8226 [6] = assay: Antiproliferative activity against doxorubicin resistant human RPMI-8226 cells assessed as cell growth inhibition; format: functional, cell-based
RPMI-8226 [7] = assay: Antiproliferative activity against bortezomib resistant human RPMI-8226 cells assessed as cell growth inhibition; format: functional, cell-based
HeLa = assay: Antiproliferative activity against human HeLa cells assessed as cell growth inhibition; format: functional, cell-based
HepG2 = assay: Antiproliferative activity against human HepG2 cells assessed as cell growth inhibition; format: functional, cell-based
C3A = assay: Antiproliferative activity against human C3A cells assessed as cell growth inhibition; format: functional, cell-based
Huh-7 = assay: Antiproliferative activity against human Huh-7 cells assessed as cell growth inhibition; format: functional, cell-based
MKN-45 = assay: Antiproliferative activity against human MKN-45 cells assessed as cell growth inhibition; format: functional, cell-based
MKN-28 = assay: Antiproliferative activity against human MKN-28 cells assessed as cell growth inhibition; format: functional, cell-based
[8] = Antiproliferative activity against human KATO III stomach cancer cell line assessed as cell growth inhibition; format: functional, cell-based
[9] = Antiproliferative activity against human YCC-2 cells assessed as cell growth inhibition; format: functional, cell-based
PC-3 = assay: Antiproliferative activity against human PC-3 cells assessed as cell growth inhibition; format: functional, cell-based
DU-145 = assay: Antiproliferative activity against human DU-145 cells assessed as cell growth inhibition; format: functional, cell-based
LNCaP = assay: Antiproliferative activity against human LNCaP cells assessed as cell growth inhibition; format: functional, cell-based
[10] = Antiproliferative activity against dog CL-1 cells assessed as cell growth inhibition; format: functional, cell-based; details: Canis lupus familiaris
RCC4 = assay: Antiproliferative activity against human RCC4 cells assessed as cell growth inhibition; format: functional, cell-based
[11] = Antiproliferative activity against human Renal cancer tumor cell line assessed as cell growth inhibition; format: functional, cell-based
UMSCC1 = assay: Antiproliferative activity against human UMSCC1 cells assessed as cell growth inhibition; format: functional, cell-based
SCC-4 = assay: Antiproliferative activity against human SCC-4 cells assessed as cell growth inhibition; format: functional, cell-based
SCC-38 = assay: Antiproliferative activity against human SCC-38 cells assessed as cell growth inhibition; format: functional, cell-based
A549 = assay: Antiproliferative activity against human A549 cells assessed as cell growth inhibition; format: functional, cell-based
NCI-H1299 = assay: Antiproliferative activity against human NCI-H1299 cells assessed as cell growth inhibition; format: functional, cell-based
NCI-H1975 [12] = assay: Antiproliferative activity against human NCI-H1975 cells assessed as cell growth inhibition; format: functional, cell-based
NCI-H460 = assay: Antiproliferative activity against human NCI-H460 cells assessed as cell growth inhibition; format: functional, cell-based
HCC827 = assay: Antiproliferative activity against human HCC827 cells assessed as cell growth inhibition; format: functional, cell-based
[13] = Antiproliferative activity against human SPCA1 cells assessed as cell growth inhibition; format: functional, cell-based
[14] = Antiproliferative activity against human GLC-82 cells assessed as cell growth inhibition; format: functional, cell-based; details: GLC82
NSCLC = assay: Antiproliferative activity against human NSCLC cells assessed as cell growth inhibition; format: functional, cell-based
[15] = Antiproliferative activity against human 95-D cells assessed as cell growth inhibition; format: functional, cell-based
NCI-H1650 = assay: Antiproliferative activity against human NCI-H1650 cells assessed as cell growth inhibition; format: functional, cell-based
NCI-H1975 [16] = assay: Antiproliferative activity against gefitinib-resistant human NCI-H1975 cells assessed as cell growth inhibition; format: functional, cell-based
NCI-H2228 = assay: Antiproliferative activity against human NCI-H2228 cells assessed as cell growth inhibition; format: functional, cell-based
SW13 = assay: Antiproliferative activity against human SW13 cells assessed as cell growth inhibition; format: functional, cell-based
SK-MEL-28 = assay: Antiproliferative activity against human SK-MEL-28 cells assessed as cell growth inhibition; format: functional, cell-based
U-251 = assay: Antiproliferative activity against human U-251MG cells assessed as cell growth inhibition; format: functional, cell-based
[17] = Antiproliferative activity against human U373 MG cells assessed as cell growth inhibition; format: functional, cell-based, U-373MG ATCC
MCF7 = assay: Antiproliferative activity against human MCF7 cells assessed as cell growth inhibition; format: functional, cell-based
MDA-MB-231 = assay: Antiproliferative activity against human MDA-MB-231 cells assessed as cell growth inhibition; format: functional, cell-based
A2780 = assay: Antiproliferative activity against human A2780 cells assessed as cell growth inhibition; format: functional, cell-based
SK-OV-3 = assay: Antiproliferative activity against human SK-OV-3 cells assessed as cell growth inhibition; format: functional, cell-based
[18] = Antiproliferative activity against human 253J-BV cells assessed as cell growth inhibition; format: functional, cell-based
[19] = Antiproliferative activity against human KU-7 cells assessed as cell growth inhibition; format: functional, cell-based; details: KU7
[20] = Antiproliferative activity against human Nasopharyngeal carcinoma cell line assessed as cell growth inhibition; format: functional, cell-based
U2OS = assay: Antiproliferative activity against human U2OS cells assessed as cell growth inhibition; format: functional, cell-based
HOS = assay: Antiproliferative activity against human HOS cells assessed as cell growth inhibition; format: functional, cell-based
MG-63 = assay: Antiproliferative activity against human MG-63 cells assessed as cell growth inhibition; format: functional, cell-based
SAOS-2 = assay: Antiproliferative activity against human SAOS-2 cells assessed as cell growth inhibition; format: functional, cell-based
Rhizoctonia solani = assay: Antifungal activity against Rhizoctonia solani assessed as inhibition of fungal growth at 10 ug/ml relative to control; format: functional; set-up: scale not given: the % may be the effect or the level left; details: dose 10 µg/ml
[21] = system: Colletotrichum gloeosporioides; assay: Antifungal activity against Glomerella cingulata assessed as inhibition of fungal growth at 10 ug/ml relative to control; format: functional; set-up: scale not given: the % may be the effect or the level left; details: dose 10 µg/ml
Erysiphales [22] = assay: Antifungal activity against powdery mildew assessed as preventive effects at 100 ug/ml relative to control; format: functional; details: dose 100 µg/ml
Erysiphales [23] = assay: Antifungal activity against powdery mildew assessed as curative effects at 100 ug/ml relative to control; format: functional; details: dose 100 µg/ml
Staphylococcus aureus = assay: Antibacterial activity against Staphylococcus aureus assessed as inhibition of bacterial growth; format: functional
[24] = target: UDP-glucuronosyltransferase 1A6 (Homo sapiens, UniProt P19224); assay: Binding affinity to UGT1A6 (unknown origin) assessed as inhibition constant
[25] = target: UDP-glucuronosyltransferase 2B7 (Homo sapiens, UniProt P16662); assay: Binding affinity to UGT2B7 (unknown origin) assessed as inhibition constant
Cytochrome P450 2C11 [26] = target: T1, Cytochrome P450 2C11 (Rattus norvegicus, UniProt P08683); assay: Inhibition of rat Cyp2c11; format: ADME
Cytochrome P450 2C11 [27] = target: T1, Cytochrome P450 2C11; assay: Binding affinity to rat Cyp2c11; format: ADME
Cytochrome P450 1A2 [28] = target: T2, Cytochrome P450 1A2 (Rattus norvegicus, UniProt P04799); assay: Inhibition of rat CYP1A2
Cytochrome P450 1A2 [29] = target: T2, Cytochrome P450 1A2; assay: Binding affinity to rat CYP1A2
Cytochrome P450 3A2 [30] = target: T3, Cytochrome P450 3A2 (Rattus norvegicus, UniProt P05183); assay: Inhibition of rat CYP3A2
Cytochrome P450 3A2 [31] = target: T3, Cytochrome P450 3A2; assay: Binding affinity to rat CYP3A2
[32] = Toxicity in wild-type Zebrafish embryos measured after 48 hrs; set-up: species or system Danio rerio
[33] = Toxicity in wild-type Zebrafish embryos measured after 72 hrs; set-up: species or system Danio rerio
[34] = Toxicity in wild-type Zebrafish embryos assessed as lethal effect; set-up: species or system Danio rerio; details: in vivo
Mus musculus = assay: Antiinflammatory activity in po dosed asthmatic mouse model; format: functional

T2 sequence (P04799 whole entry): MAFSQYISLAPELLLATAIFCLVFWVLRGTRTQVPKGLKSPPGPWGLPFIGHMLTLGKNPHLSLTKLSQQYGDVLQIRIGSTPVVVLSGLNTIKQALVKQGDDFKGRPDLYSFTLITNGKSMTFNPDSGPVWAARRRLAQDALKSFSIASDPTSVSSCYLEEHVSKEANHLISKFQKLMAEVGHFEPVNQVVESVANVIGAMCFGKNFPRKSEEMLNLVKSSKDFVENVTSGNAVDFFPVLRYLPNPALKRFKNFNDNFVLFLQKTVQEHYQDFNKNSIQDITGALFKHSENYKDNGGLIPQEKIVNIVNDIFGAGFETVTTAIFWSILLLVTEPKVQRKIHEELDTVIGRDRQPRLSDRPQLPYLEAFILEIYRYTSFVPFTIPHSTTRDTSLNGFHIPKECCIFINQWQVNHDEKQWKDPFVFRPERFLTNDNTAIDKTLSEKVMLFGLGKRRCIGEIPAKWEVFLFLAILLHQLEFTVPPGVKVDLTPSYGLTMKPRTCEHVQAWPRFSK
T1 sequence (P08683 whole entry): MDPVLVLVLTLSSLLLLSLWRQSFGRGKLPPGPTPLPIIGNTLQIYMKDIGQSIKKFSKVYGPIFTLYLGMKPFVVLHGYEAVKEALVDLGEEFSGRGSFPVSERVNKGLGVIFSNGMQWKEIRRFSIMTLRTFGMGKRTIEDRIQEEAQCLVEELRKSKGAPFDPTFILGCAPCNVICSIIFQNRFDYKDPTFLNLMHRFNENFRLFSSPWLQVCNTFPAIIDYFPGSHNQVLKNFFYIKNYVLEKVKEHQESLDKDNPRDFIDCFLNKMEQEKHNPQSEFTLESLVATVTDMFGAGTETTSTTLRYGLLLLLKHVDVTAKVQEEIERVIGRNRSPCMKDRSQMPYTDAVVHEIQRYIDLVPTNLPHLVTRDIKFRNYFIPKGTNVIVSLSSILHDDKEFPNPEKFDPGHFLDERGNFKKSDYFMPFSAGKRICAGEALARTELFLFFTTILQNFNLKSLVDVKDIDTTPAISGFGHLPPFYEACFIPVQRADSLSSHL
T3 sequence (P05183 whole entry): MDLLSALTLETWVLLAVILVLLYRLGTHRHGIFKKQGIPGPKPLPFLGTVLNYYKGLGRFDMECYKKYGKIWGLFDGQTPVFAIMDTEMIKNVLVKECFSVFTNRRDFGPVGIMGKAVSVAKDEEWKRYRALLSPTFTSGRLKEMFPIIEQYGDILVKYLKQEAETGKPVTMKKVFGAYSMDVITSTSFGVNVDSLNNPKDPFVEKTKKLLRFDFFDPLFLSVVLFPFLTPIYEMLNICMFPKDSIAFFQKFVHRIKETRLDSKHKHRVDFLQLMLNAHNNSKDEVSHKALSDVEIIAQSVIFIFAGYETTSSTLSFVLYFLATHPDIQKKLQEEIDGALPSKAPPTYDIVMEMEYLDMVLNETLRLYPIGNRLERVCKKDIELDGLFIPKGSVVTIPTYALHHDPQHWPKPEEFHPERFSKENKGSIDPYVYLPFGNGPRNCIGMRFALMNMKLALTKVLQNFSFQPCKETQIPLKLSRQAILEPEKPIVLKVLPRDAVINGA
UDP-glucuronosyltransferase 1A6, sequence (P19224 whole entry): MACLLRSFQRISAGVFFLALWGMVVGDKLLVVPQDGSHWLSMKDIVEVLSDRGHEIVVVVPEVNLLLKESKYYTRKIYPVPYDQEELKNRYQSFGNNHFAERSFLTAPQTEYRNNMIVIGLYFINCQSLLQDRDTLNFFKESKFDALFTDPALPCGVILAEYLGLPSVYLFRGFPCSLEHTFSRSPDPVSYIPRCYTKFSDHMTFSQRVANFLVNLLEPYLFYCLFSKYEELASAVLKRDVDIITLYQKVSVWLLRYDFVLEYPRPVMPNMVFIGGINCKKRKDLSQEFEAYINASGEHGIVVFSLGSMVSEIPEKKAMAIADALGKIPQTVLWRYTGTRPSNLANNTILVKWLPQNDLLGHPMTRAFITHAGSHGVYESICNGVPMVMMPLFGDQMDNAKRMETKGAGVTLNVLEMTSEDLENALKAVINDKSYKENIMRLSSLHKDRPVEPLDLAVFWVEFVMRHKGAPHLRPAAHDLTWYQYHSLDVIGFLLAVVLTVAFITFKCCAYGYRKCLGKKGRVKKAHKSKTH
UDP-glucuronosyltransferase 2B7, sequence (P16662 whole entry): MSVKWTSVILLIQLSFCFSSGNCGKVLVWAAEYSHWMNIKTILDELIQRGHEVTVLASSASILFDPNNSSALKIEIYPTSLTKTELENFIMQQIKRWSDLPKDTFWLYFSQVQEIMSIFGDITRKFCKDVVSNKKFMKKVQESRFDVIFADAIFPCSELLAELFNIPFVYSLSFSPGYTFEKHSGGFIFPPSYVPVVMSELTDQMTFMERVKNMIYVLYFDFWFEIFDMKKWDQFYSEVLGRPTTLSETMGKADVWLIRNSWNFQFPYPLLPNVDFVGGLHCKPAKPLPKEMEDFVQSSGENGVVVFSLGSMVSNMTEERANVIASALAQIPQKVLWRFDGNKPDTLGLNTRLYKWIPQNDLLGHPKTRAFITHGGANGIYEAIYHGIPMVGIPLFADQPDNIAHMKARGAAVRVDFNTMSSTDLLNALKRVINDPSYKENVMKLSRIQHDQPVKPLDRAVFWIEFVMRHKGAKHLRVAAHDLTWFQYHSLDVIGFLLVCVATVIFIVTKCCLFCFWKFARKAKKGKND

COC(=O)[C@]1(C)CC[C@]2(C)CC[C@]3(C)C4=CC(c5cn(C)c6cc(Cl)ccc56)c5c(cc(OC)c(OC)c5C)[C@]4(C)CC[C@@]3(C)[C@@H]2C1 (stereo partly drawn)
IC50 (Bel-7402): 10 nM

COC(=O)[C@]1(C)CC[C@]2(C)CC[C@]3(C)C4=CC(c5c[nH]c6cc(C)ccc56)c5c(cc(OC)c(OC)c5C)[C@]4(C)CC[C@@]3(C)[C@@H]2C1 (stereo partly drawn)
IC50 (Bel-7402): 20 nM

CC1=C(O)C(=O)C=C2C1=CC=C1[C@@]2(C)CC[C@@]2(C)[C@@H]3C[C@](C)(C(=O)O)CC[C@]3(C)CC[C@]12C [CELASTROL]
IC50 (U-937): 2000 nM
IC50 (AGS): 250 nM
IC50 (K562): 400 nM
IC50 (KBM5 [1]): 500 nM
IC50 (KBM5 [2]): 520 nM
IC50 (Kasumi 1): 2200 nM
IC50 [3]: 1300 nM
IC50 (U-266): 470 nM
IC50 (MM1.S): 630 nM
IC50 [4]: 520 nM
IC50 (LP-1): 880 nM
IC50 (NCI-H929): 310 nM
IC50 (RPMI-8226 [5]): 520 nM
IC50 (RPMI-8226 [6]): 520 nM
IC50 (RPMI-8226 [7]): 730 nM
IC50 (HeLa): 1900 nM
IC50 (HepG2): 2400 nM
IC50 (C3A): 3600 nM
IC50 (Huh-7): 4700 nM
IC50 (MKN-45): 3400 nM
IC50 (MKN-28): 2300 nM
IC50 [8]: 540 nM
IC50 [9]: 500 nM
IC50 (PC-3): 1520 nM
IC50 (DU-145): 1480 nM
IC50 (LNCaP): 1760 nM
IC50 [10]: 1540 nM
IC50 (RCC4): 1880 nM
IC50 [11]: 4400 nM
IC50 (UMSCC1): 760 nM
IC50 (SCC-4): 2800 nM
IC50 (SCC-38): 1700 nM
IC50 (A549): 1990 nM
IC50 (NCI-H1299): 1490 nM
IC50 (NCI-H1975 [12]): 1660 nM
IC50 (NCI-H460): 2200 nM
IC50 (HCC827): 1300 nM
IC50 [13]: 1800 nM
IC50 [14]: 1080 nM
IC50 (NSCLC): 1480 nM
IC50 [15]: 1800 nM
IC50 (NCI-H1650): 790 nM
IC50 (NCI-H1975 [16]): 600 nM
IC50 (NCI-H2228): 1950 nM
IC50 (SW13): 100 nM
IC50 (SK-MEL-28): 1720 nM
IC50 (U-251): 690 nM
IC50 [17]: 2000 nM
IC50 (MCF7): 1580 nM
IC50 (MDA-MB-231): 670 nM
IC50 (A2780): 2110 nM
IC50 (SK-OV-3): 2290 nM
IC50 [18]: 930 nM
IC50 [19]: 1130 nM
IC50 [20]: 1000 nM
IC50 (U2OS): 2110 nM
IC50 (HOS): 2550 nM
IC50 (MG-63): 1970 nM
IC50 (SAOS-2): 1050 nM
Activity (Rhizoctonia solani): 62.6%
Activity [21]: 62.6%
Activity (Erysiphales [22]): 80.5%
Activity (Erysiphales [23]): 45.4%
MIC (Staphylococcus aureus): 0.5 µg/mL (≈ 1.11 µM)
Ki [24]: 490 nM
Ki [25]: 45 nM
IC50 (Cytochrome P450 2C11 [26]): 10200 nM
Ki (Cytochrome P450 2C11 [27]): 7050 nM
IC50 (Cytochrome P450 1A2 [28]): 52800 nM
Ki (Cytochrome P450 1A2 [29]): 39200 nM
IC50 (Cytochrome P450 3A2 [30]): 23200 nM
Ki (Cytochrome P450 3A2 [31]): 14200 nM
EC50 at 48 h [32]: 900 nM
EC50 at 72 h [33]: 700 nM
LC50 [34]: 1400 nM
LD50 (Mus musculus): 20.5 mg/kg
